Source: article PMC8659110, “Preliminary Study of New Gallium-68 Radiolabeled Peptide Targeting NRP-1 to Detect Brain Metastases by Positron Emission Tomography” (Molecules, 2021)
Like-named read-outs stand apart in the source and are kept apart here. Where a SMILES comes first, the peptide text is derived from it. Primed or numbered codes have the meaning given here. Where no end group is shown, it is not given here. The star is where a group is joined. Cy5(nonsulfonated) = CN1C(=CC=CC=CC2=[N+](CCCCCC(=O)*)c3ccccc3C2(C)C)C(C)(C)c2ccccc21; NODAGA = O=C(O)CN1CCN(CC(=O)O)CCN(C(CCC(=O)*)C(=O)O)CC1; Cy5 = Cy5 fluorophore (fluorescent dye); NODAGA′ = chelator

What was measured:
[1] = Photophysical properties (absorption and fluorescence) in water; assay type: physicochemical; details: for Fluorescence quantum yield (φF): λex = 590 nm
Description: All reactions involving cyanine5 compounds were performed in the dark. Preparative reverse-phase high-performance liquid chromatography (HPLC) was performed on SPOT PREP Liquid Chromatography (ARMEN Instrument, Saint-Avé, France) with a Pursuit 5-C18 column (5 μm, 21.2 × 150 mm; Varian). Pure compounds obtained were analyzed accordingly by LC-MS on a Shimadzu LCMS-2020 monitored by a Diode Array Detector SPD-M20A (Shimadzu, Marne la Vallée, France) using a Pursuit 5-C18 column (4.6 × 150 mm; Varian) (Varian, Agilent Technologies, Santa Clara, CA, USA). Absorption spectra were recorded on a Perkin-Elmer Lambda EZ210 (Perkin-Elmer, Courtaboeuf, France) double-beam UV–visible spectrophotometer. Fluorescence spectra were recorded on a Fluorolog-3 spectrofluorometer FL3-222 (Horiba Jobin Yvon, Longjumeau, France) with a thermostated cell compartment (25 °C) using a 450-W Xenon lamp. The fluorescence quantum yield (φF) was determined using tetraphenyl porphyrin (TPP) solution in toluene as the fluorescence standard (φF = 0.11).

[2] = target: NRP-1 recombinant chimeric protein; assay: Competitive binding assay with biotinylated VEGF-165 on recombinant NRP-1; details: for IC50: in the presence of heparin, 2 h at room temperature, read-out: IC50 ± SD (displacement of 50% of b-VEGF-165); for Concentration needed to decrease the binding of b-VEGF-165 to NRP-1: only at high concentration
Description: (§1) We evaluated the binding capacity of compounds toward NRP-1 using two different techniques: (1) a competitive binding assay with biotinylated VEGF (b-VEGF-165), a natural ligand of NRP-1 immobilized on a microplate surface in the presence of heparin, which allowed calculating the IC50 (the concentration of compound that displaced 50% of b-VEGF-165), and (2) surface plasmon resonance (SPR), a sensitive, optical-based, label-free detection technology for the real-time monitoring of molecular interactions between injected analytes and ligands covalently attached to the surface of a sensor chip. This technique was used to calculate the KD. VEGF-165 was used as the positive control in these two techniques.
The binding of compounds for the NRP-1 protein was evaluated in terms of the half-maximal inhibitory concentration (IC50 values) through a competitive assay, as previously described. VEGF-165, the natural ligand of NRP-1, was used as the positive control. Briefly, the surfaces of Maxisorp microplates (Thermo Fisher Scientific, France) were coated with NRP-1 recombinant chimeric proteins (Bio-techne, France). The binding of compounds to NRP-1 was assessed using biotinylated VEGF-165 (b-VEGF-165) (AcroBioSystem, Interchim, France) in the presence of heparin (Bio-techne, France) in competition or not with various concentrations of compounds or unlabeled VEGF-165 (Bio-techne, France) as the positive control. After 2 h of incubation at room temperature, the plates were washed, and the amount of bound b-VEGF-165 was stained with streptavidin horseradish peroxidase conjugate (Bio-techne, France) and assayed. […] The results were expressed as the mean of the relative absorbance percentage to wells containing only blocking buffers of triplicate measurements. The affinities were estimated as the IC50 values (i.e., the concentration of compounds that displaced 50% of β-VEGF-165 binding) calculated using the one-site fit log-IC50 nonlinear analysis regression of GraphPad Prism 6 software (v 6.05, USA).

[3] = target: T1, recombinant rat NRP-1 protein (Rattus norvegicus, UniProt Q9QWJ9); assay: Surface plasmon resonance (SPR) on immobilized recombinant NRP-1; assay type: binding; details: Figure S5, injected at 10 and 30 µM
T1 construct: purchased Bio-techne (France)
Description: as §1
The equilibrium dissociation constant (KD) was evaluated using surface plasmon resonance, based on Gries et al.. All experiments were performed at 25 °C using the BIACORE T200 instrument (GE Healthcare Biacore, Uppsala, Sweden). Sensor surfaces and other Biacore consumables were purchased from GE Healthcare Biacore (USA). […]
They flowed at a rate of 30 µL/min for 300 s at 25 °C. […] The equilibrium response was recorded 5 s before the end of the compound injection (time window: 5 s). […] The KD value was determined by fitting the response (RU) versus analyte concentration (µM) curve to a simple 1:1 interaction model with the BiaEvaluation 3.2 software (GE Healthcare). […]

[4] = test system: HUVEC cells; assay: Proliferation assay, real-time cell tracking (IncuCyte), HUVEC; assay type: cell-based, human; details: for Doubling-time values (Time (h) ± SD): exponential phase
Description: (§2) The proliferation of MDA-MB-231 and HUVEC cells were investigated using a label-free, noninvasive IncuCyte® S3 live-cell imaging system (Sartorius, Germany). Cells were plated as described for metabolic activity placed in an incubator (Binder) at 37 °C. Cells were photographed at 2-h intervals using a 20× objective over several days. […] Phase–object confluence was calculated at each time point based on the segmentation of high-definition phase-contrast images using IncuCyte S3 2018B software and expressed in percentages. Experiments were performed in triplicate.
(§3) Cell doubling time (DT) was calculated using the following Equation (1):(1) DT=Tend−TstartLn2/LnCend−LnCstart where Tstart/Tend are the times at the start/end of the exponential growth phase. Cstart/Cend are the percentage of confluence of the cells at the start/end of the exponential growth phase.

[5] = target: NRP-1; parameters: method as in PMID 22372770; details: read-out: KD previously found; cited from earlier work
[6] = test system: MDA-MB-231 cells; assay: Proliferation assay, real-time cell tracking (IncuCyte), MDA-MB-231; assay type: cell-based; details: for Doubling-time values (Time (h) ± SD): exponential phase
Description: as §2, §3

[7] = assay type: in vitro ADME, rodent
Description: (§4) The stability of [^68Ga]Ga-NODAGA-K(Cy5)DKPPR was performed in various media, final formulated media, and plasma.
For the stability in plasma, 100 µL of [^68Ga]Ga-NODAGA-K(Cy5)DKPPR was added to 400 µL of fresh rodent plasma and was incubated at 37 °C for 0, 30, 60, and 120 min. After incubation, the solutions were treated with 400 µL of acetonitrile to precipitate the proteins, vortexed for 1 min, and then centrifuged (2500 rpm, 980 G, 5 min). The supernatant layer was analyzed by analytical radio-HPLC.

[8] = assay type: physicochemical; details: 2 h
Description: as §4
The final [^68Ga]Ga-NODAGA-K(Cy5)DKPPR was kept at room temperature and analyzed by radio-HPLC at the end of the synthesis and 1 h, 2 h, and 3 h after manufacturing.

[9] = test system: MDA-MB-231 tumor in the rat brain; parameters: species or system nude rat; details: in vivo
Description: Breast cells from the MDA-MB-231 lineage (MDA-MB-231 (ATCC® HTB-26)) were induced by the vascular injection of 2.5 × 10^5 cells resuspended in a volume of 50 µL of RPMI medium (Merck, Molsheim, France) into the animal’s internal carotid.
PET recordings were obtained with a camera dedicated to small animal studies (Inveon, Siemens Preclinical Solutions, Knoxville, TN, USA). After rats anesthetized with isoflurane, 50 MBq of [^68Ga]Ga-NODAGA-K(Cy5)DKPPR (1st day) were injected as a bolus via a lateral tail vein. […]
The uptake values are expressed in SUV (Standardized Uptake Values), which are standardized fixation values relative to the animal’s weight and injected activity. Tissue time activity curves (TTACs) for tumors and various organ activities were determined by average SUVs in volumes of interest (VOI), which were drawn with dedicated software (Inveon Research Workplace 4.1, Siemens®, Knoxville, USA) on static images encompassing the whole acquisition. […]

[10] = test system: NRP-1 protein; parameters: method as in PMID 19464192, PMID 25645959; details: previous studies; cited from earlier work

| IC50 [2] [µM] | Compound | Molar extinction coefficient (ε) [1] | Fluorescence quantum yield (φF) [1] [%] | Doubling-time values (Time (h) ± SD) ([4]; 1 µM) [h] | Doubling-time values (Time (h) ± SD) ([4]; 10 µM) [h] | Doubling-time values (Time (h) ± SD) ([6]; MDA MB 231, 1 µM) [h] | Doubling-time values (Time (h) ± SD) ([6]; MDA MB 231, 10 µM) [h] | other results |
| --- | --- | --- | --- | --- | --- | --- | --- | --- |
| – | C[N+]1=C(C=CC=CC=C2N(CCCCCC(=O)ON3C(=O)CCC3=O)c3ccccc3C2(C)C)C(C)(C)c2ccccc21.[Cl-] [Cy5-NHS, Cyanine5-NHS ester, reference compound] | 209,000 L mol^−1 cm^−1 | 27 | – | – | – | – | – |
| 300 | KRPKPD | – | – | – | – | – | – | Concentration needed to decrease the binding of b-VEGF-165 to NRP-1 [2]: > 100 µM; SPR interaction toward NRP-1 (shape of curve) [3]: weak affinity or a nonspecific interaction |
| 2 ± 1 | H-KDKPPR-OH [KDKPPR] | – | – | 29 ± 2 | 30 ± 2 | 32 ± 1 | 33 ± 2 | Kd [5]: 8.7 µM |
| 0.1 | CN1C(=CC=CC=CC2=[N+](CCCCCC(=O)NCCCC[C@H](NC(=O)CCC(C(=O)O)N3CCN(CC(=O)O)CCN(CC(=O)O)CC3)C(=O)N[C@@H](CC(=O)O)C(=O)N[C@@H](CCCCN)C(=O)N3CCC[C@H]3C(=O)N3CCC[C@H]3C(=O)N[C@@H](CCCNC(=N)N)C(=O)O)c3ccccc3C2(C)C)C(C)(C)c2ccccc21 (stereo partly shown) [^natGa-NODAGA-K(Cy5)DKPPR, metal not drawn] ({NODAGA}-K(Cy5(nonsulfonated))DKPPR-OH; C-terminus assumed) | 44,552 L mol^−1 cm^−1 | 61 | 30 ± 3 | 28 ± 2 | 31 ± 1 | 32 ± 1 | Proliferation of cells (confluence follow-up) ([4]; 0–10 µM): did not modify; Proliferation of cells (confluence follow-up) ([6]; MDA-MB-231, 0–10 µM): did not modify |
| – | [^68Ga]Ga-NODAGA-K(Cy5)DKPPR | – | – | – | – | – | – | In vitro stability (time) [7]: > 120 min; In vitro stability, remaining stable ([7]; plasma, 2 h): > 95%; In vitro stability, remaining stable [8]: > 95%; Time to plateau of normalized tumor TTAC after injection [9]: roughly 10 min |
| – | VEGF-165: natural ligand of NRP-1, positive control | – | – | – | – | – | – | Shift of b-VEGF-165 binding to the receptor ([2]; used at 26 nM, positive control, data not shown): completely shifted |
| – | ^natGa-NODAGA-K(Cy5)RPKPD ({NODAGA′}-K(Cy5)RPKPD; also: NODAGA complexed with natGa) | 39,870 L mol^−1 cm^−1 | 79 | 27 ± 1 | 28 ± 1 | 33 ± 1 | 33 ± 3 | Concentration needed to decrease the binding of b-VEGF-165 to NRP-1 [2]: > 100 µM; SPR interaction toward NRP-1 (shape of curve) [3]: weak affinity or a nonspecific interaction |
| – | ATWLPPR [ligand peptide of NRP-1 from previous studies] | – | – | – | – | – | – | IC50 [10]: 19 µM |
